Results taken from patent US5177082A, “Huperzines and analogs” (priority 1990, dated 1993).
Entries after “also recorded” stand apart in the source; their conditions may differ.

Experiments:
memory functions of rats = assay: Memory function of preconditioned rats after 48 hours; assay type: in vivo, rat
Method: To evaluate the impact on the memory function, preconditioned animals going through 5 shock-free runs were used as learned animals. After 48 hours the drug-free (control) animals required 14.4±8.9 shocks to become learned.

Rats = conditions: rat, in vivo
patients = assay: Clinical side effects in patients with myasthenia gravis; assay type: in vivo, human
Method: Patients affected with myasthenia gravis (MG) with typical clinical symptoms which improved after using neostigmine were the subjects for testing and verification. […] It was generally used for at least ten days and each dosage was 0.4-0.5 mg. […] The injections were all given in the morning and on the morning prior to the injections anticholinesterase drugs were discontinued. Neither the patients nor the doctors knew which drug was being injected. Later, the symptoms, the duration of the improvements, if any, which were obtained by the drugs and the side effects were recorded. Based on these factors, the relative merits of the two drugs were established.

What does the source list for `C/C=C1\[C@H]2C=C(C)C[C@]1(N)c1ccc(=O)[nH]c1C2` [Huperzine A, (5R, 9R, 11E)-5-amino-11-ethylidene-5,6,9,10-tetrahydro-7-methyl-5,9-methanocycloocta[b]pyridin-2(1H)-one]?
shocks required to achieve the learned state (memory) (memory functions of rats; 0.03 mg/kg, ip, after 48 hours): 6.8±7.2 shocks; memory functions (Y-maze and brightness discrimination test) (memory functions of rats; normal male rats, 1/138 of the LD50 dosage): can strengthen the memory functions; Toxic Strength (Rats): 1.00; nausea vs neostigmine (patients; X^2 =15, P<0.001): more apt to cause nausea than was neostigmine; Abdominal pains, % (patients; control group): 5.9%; Abdominal pains, number of times (patients; control group): 21; Blurred vision, % (patients; control group): 3.2%; Blurred vision, number of times (patients; control group): 11; Changes in the rhythm of the heart, % (patients; control group): 3.1%; Changes in the rhythm of the heart, number of times (patients; control group): 11; Disturbed sleep, % (patients; control group): 0.8%; Disturbed sleep, number of times (patients; control group): 3; Dizziness, % (patients; control group): 20.3%; Dizziness, number of times (patients; control group): 72; Drooling, % (patients; control group): 3.5%; Drooling, number of times (patients; control group): 9; Increase in the number of bowel movements, % (patients; control group): 2.8%; Increase in the number of bowel movements, number of times (patients; control group): 10; Muscle bundle quivering, % (patients; control group): 10.4%; Muscle bundle quivering, number of times (patients; control group): 37; Myosis, % (patients; control group): 3.0%; Myosis, number of times (patients; control group): 13; Nausea, % (patients; control group): 12.9%; Nausea, number of times (patients; control group): 46; Perspiring, % (patients; control group): 7.0%; Perspiring, number of times (patients; control group): 25; Tinnitus, % (patients; control group): 3.7%; Tinnitus, number of times (patients; control group): 13; Vomiting, % (patients; control group): 2.8%; Vomiting, number of times (patients; control group): 10; cases with side effects (patients; control patients, 69 cases): 45 cases; cases with side effects, % (patients; control patients, 69 cases, X^2 =3.58, P>0.05): 65.21%; side effects other than nausea vs neostigmine (patients; muscle bundle quivering, dizziness, perspiring, blurred vision): lower side effects for each of the other items than neostigmine; also recorded: statistically lower than neostigmine; also recorded: lower side effects in all other areas than neostigmine; Abdominal pains, % (patients; noncontrol group, 128 cases): 6.5%; Abdominal pains, number of times (patients; noncontrol group, 128 cases): 80; Blurred vision, % (patients; noncontrol group, 128 cases): 1.8%; Blurred vision, number of times (patients; noncontrol group, 128 cases): 22; Changes in the rhythm of the heart, % (patients; noncontrol group, 128 cases): 1.0%; Changes in the rhythm of the heart, number of times (patients; noncontrol group, 128 cases): 13; Disturbed sleep, % (patients; noncontrol group, 128 cases): 0.4%; Disturbed sleep, number of times (patients; noncontrol group, 128 cases): 5; Dizziness, % (patients; noncontrol group, 128 cases): 8.1%; Dizziness, number of times (patients; noncontrol group, 128 cases): 100; Drooling, % (patients; noncontrol group, 128 cases): 2.0%; Drooling, number of times (patients; noncontrol group, 128 cases): 25; Increase in the number of bowel movements, % (patients; noncontrol group, 128 cases): 0.5%; Increase in the number of bowel movements, number of times (patients; noncontrol group, 128 cases): 11; Muscle bundle quivering, % (patients; noncontrol group, 128 cases): 4.0%; Myosis, % (patients; noncontrol group, 128 cases): 1.0%; Myosis, number of times (patients; noncontrol group, 128 cases): 13; Nausea, % (patients; noncontrol group, 128 cases): 7.8%; Nausea, number of times (patients; noncontrol group, 128 cases): 95; Perspiring, % (patients; noncontrol group, 128 cases): 4.8%; Perspiring, number of times (patients; noncontrol group, 128 cases): 59; Tinnitus, % (patients; noncontrol group, 128 cases): 3.1%; Tinnitus, number of times (patients; noncontrol group, 128 cases): 38; Vomiting, % (patients; noncontrol group, 128 cases): 1.2%; Vomiting, number of times (patients; noncontrol group, 128 cases): 15
